In patent US9150555B2, “Amide derivative and use thereof” (Mitsubishi Tanabe Pharma Corporation, priority 2010, dated 2015):
Counter-ions that a name gives are not always drawn.

How the values were obtained:
hERG = hERG (Homo sapiens, UniProt Q12809); assay: Effects on hERG current (whole-cell clamping); settings: human, HEK 293 cells that express hERG, pH 7.4, hERG inhibition rate (%) (1 μM), 1 μM; tail peak current; hERG-expressed HEK 293 cells
Description: Dimethylsulfoxide was used as a vehicle and hERG-expressed HEK 293 cells (Cytomyx) were used as test cells. Test cells were once cultured and subdivided and were stored under frozen condition in liquid nitrogen. In the study, thawed and subcultured cells having less than 30 of the passage number were used. Test cells were cultured in a carbon dioxide incubator BNP-110M (Tabai Espec Corp.) at 37±1° C., and 5.0±0.5% of carbon dioxide concentration. The component of culture medium was MEM (Minimum Essential Medium) supplemented with 10 vol % fetal bovine serum (non-activated), 1 mmol/L sodium pyruvate, 0.1 mmol/L non-essential amino acid, 100 U/mL penicillin with 100 μg/mL streptomycin. To select gene-expressing cells, 400 μg/mL G418 Sulphate (Invitrogen) was added to the culture medium. In the dishes for the measurement, the medium which not contain G418 Sulphate (Invitrogen) was used.
As to seeding of cells for measurement, subcultured cells which became confluent were treated with 0.25% trypsin-solution containing 1 mmol/L EDTA (Invitrogen) to remove from the plate, and seeded on sterilized collagen-coated cover glass (Iwaki, AGC Techno Glass Co., LTD). The medium was exchanged appropriately, including the day of measurement.
A perfusion method was applied to the experiment. Test cells were perfused (perfusion speed: approximately 4 mL/min) with an external solution containing specified concentrations of test compounds (component of external solution: 137 mmol/L of sodium chloride, 4 mmol/L of potassium chloride, 10 mmol/L of HEPES, 1.8 mmol/L of calcium chloride, 1 mmol/L of magnesium chloride and 10 mmol/L of glucose; adjusted to pH 7.4±0.1 with sodium hydroxide aqueous solution). […] When effects were observed, the perfusion was continued until the maximum response was observed. […] The data were obtained from one experiment or more and the cells which were incubated in a carbon dioxide incubator after seeding and attached to cover slips were used for the measurement.
A whole-cell clamping method was applied to the measurement. Test cells were perfused (perfusion speed: approximately 4 mL/min) with an external solution (component of external solution: 137 mmol/L of sodium chloride, 4 mmol/L of potassium chloride, 10 mmol/L of HEPES, 1.8 mmol/L of calcium chloride, 1 mmol/L of magnesium chloride and 10 mmol/L of glucose; adjusted to pH 7.4±0.1 with sodium hydroxide aqueous solution). A glass electrode with a resistance of 2 to 6 MΩ, filled with an internal solution (component: 130 mmol/L of potassium chloride, 1 mmol/L of magnesium chloride, 5 mmol/L of EGTA, 10 mmol/L of HEPES and 5 mmol/L of ATP adjusted to pH 7.2±0.1 with sodium hydroxide aqueous solution) was used. After rupturing cell membrane with glass electrode, the cell membrane voltage was held at −80 mV via a patch clamp software (pCLAMP9 [Axon CNS], Molecular Devices) using patch clamp amplifier (EPC8, HEKA). […] Test cells and the cell-attached cover glass were changed every treatment. Temperature of the fluid in a perfusion fluid tank was 24±2° C.
The obtained current was recorded on a computer via a patch clamp amplifier using patch clamp software. An evaluation item was a tail peak current.
A tail peak current was analyzed using analyzing software (Clampfit 9 [Axon CNS], MolecularDevices). Each 2 pulses of before and after perfusion of test compound for each concentration was analyzed, and a peak values of the tail current on the pulses were determined. The inhibition ratio was determined according to the following equation:

[1] = tested on: IL-17 production of mouse spleen cells stimulated by rm-IL-23; assay: Production of IL-17 induced when mouse spleen cells were stimulated by recombinant mouse interleukin-23 (rm-IL-23); assay type: cell-based; settings: Mus musculus, 72 h, inhibition of IL-17 production, DBA/1J mouse spleen cells, rm-IL-23 1 nmol/L, ELISA
Description: Effect on Production of IL-17 Induced when Mouse Spleen Cells were Stimulated by Recombinant Mouse Interleukin-23 (rm-IL-23)
An RPMI1640 (Sigma-Aldrich) was used as a medium, to which penicillin G potassium (50 units/mL; Gibco), streptomycin (50 μg/mL; Gibco) and 2-mercaptoethanol (50 μmol/l; Sigma-Aldrich) were added, and then 10% of fetal calf serum (FCS; Cell Culture Technology) inactivated at 56° C. for 30 minutes was added and used in the Test. The test compound was dissolved in dimethylsulfoxide and diluted with 10% FCS-containing RPMI1640 medium to a desired concentration and used in the test. The spleens were aseptically taken out from 6-7 week-old male DBA/1J mice (Charles River Japan, Inc.) and a single cell suspension of spleen cells was prepared and hemolyzed by hypotonic treatment with a mixture of 0.83% aqueous solution of ammonium chloride and Tris-HCl buffer of pH 7.65 (9:1). A cell suspension prepared by 10% FCS-containing RPMI1640 medium was added to flat-bottomed 96 well microtestplate at 2×10^5 cells/well. Test compounds and rm-IL-23 (R&D systems) were diluted with a medium to 1 to 1,000 nmol/L, and 1 nmol/L of the final concentration respectively, which were added and cultured at 37° C., 5% carbon dioxide and 95% air for 72 hours. After completion of the culture, culture supernatant was sampled and an amount of IL-17 production was determined by ELISA method. After sampling the supernatant, WST-8 (Seikagaku Corporation) was added at 10 μl/well and cultured at 37° C., 5% carbon dioxide and 95% air for 4 hours. Then, absorbance (O.D.: Optical Density) at 450 nm was measured by a microplate reader and the value was adopted as an index of cell survivability. An inhibition rate (%) was calculated according to the following formula on the basis of an average of an amount of IL-17 production and a O.D. values of the well containing a test compound of each concentration.
Based on the dose-response curve obtained by plotting the inhibition rate in the longitudinal axis and concentration in the horizontal axis, the concentration of the compound which inhibits the level to 50% of the value of the control group (IC50; nmol/L) was determined by linear regression analysis. The results was shown in the next Table 1

Chain of hERG (Q12809 whole entry): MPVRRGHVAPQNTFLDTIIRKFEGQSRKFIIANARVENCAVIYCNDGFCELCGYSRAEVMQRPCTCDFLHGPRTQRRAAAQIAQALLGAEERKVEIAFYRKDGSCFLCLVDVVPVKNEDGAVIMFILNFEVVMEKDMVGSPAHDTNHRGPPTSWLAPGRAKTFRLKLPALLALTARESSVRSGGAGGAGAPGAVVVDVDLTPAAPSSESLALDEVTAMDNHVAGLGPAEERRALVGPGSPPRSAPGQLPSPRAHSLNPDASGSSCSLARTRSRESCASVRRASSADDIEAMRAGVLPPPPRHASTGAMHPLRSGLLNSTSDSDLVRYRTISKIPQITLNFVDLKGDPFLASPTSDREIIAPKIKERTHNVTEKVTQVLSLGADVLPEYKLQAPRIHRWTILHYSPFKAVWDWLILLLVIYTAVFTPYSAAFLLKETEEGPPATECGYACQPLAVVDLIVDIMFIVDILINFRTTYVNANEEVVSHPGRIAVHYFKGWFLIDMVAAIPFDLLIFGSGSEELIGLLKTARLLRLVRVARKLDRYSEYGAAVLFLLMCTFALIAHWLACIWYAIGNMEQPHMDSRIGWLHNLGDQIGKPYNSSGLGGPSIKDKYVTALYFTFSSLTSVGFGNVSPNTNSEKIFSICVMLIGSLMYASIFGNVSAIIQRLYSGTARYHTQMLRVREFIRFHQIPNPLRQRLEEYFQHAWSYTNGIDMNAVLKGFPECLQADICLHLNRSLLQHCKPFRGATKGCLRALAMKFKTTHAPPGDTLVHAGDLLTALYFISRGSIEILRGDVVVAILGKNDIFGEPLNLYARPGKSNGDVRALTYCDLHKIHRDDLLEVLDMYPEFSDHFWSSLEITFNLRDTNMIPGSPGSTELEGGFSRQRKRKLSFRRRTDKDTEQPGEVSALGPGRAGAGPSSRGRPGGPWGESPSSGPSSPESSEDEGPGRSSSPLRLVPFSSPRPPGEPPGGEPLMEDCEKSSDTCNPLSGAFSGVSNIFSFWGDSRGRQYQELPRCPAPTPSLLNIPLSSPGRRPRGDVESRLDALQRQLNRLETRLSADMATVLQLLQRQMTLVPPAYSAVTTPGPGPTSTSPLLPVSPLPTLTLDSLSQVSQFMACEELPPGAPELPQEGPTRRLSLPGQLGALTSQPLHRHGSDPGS

SMILES	inhibition at 1 µM (hERG) [%]	IC50 [1] [nM]
Cc1cc(NC(=O)c2cnn(-c3ccc(C(F)(F)F)cn3)c2C)cnc1C1=CC[C@@H](N2CCOCC2)CC1 [Example D22, (S)-5-Methyl-N-{5-methyl-6-[4-(morpholin-4-yl)cyclohex-1-en-1-yl]pyridin-3-yl}-1-[5-(trifluoromethyl)pyridin-2-yl]-1H-pyrazole-4-carboxamide]	31	36.2
Cc1cc(NC(=O)c2cnn(-c3ccc(C(F)(F)F)cn3)c2C)cnc1C1=CCC(O)CC1 (stereo not drawn) [Example D23, N-[6-(4-Hydroxycyclohex-1-en-1-yl)-5-methylpyridin-3-yl]-5-methyl-1-[5-(trifluoromethyl)-pyridin-2-yl]-1H-pyrazole-4-carboxamide]	20.2	105
Cc1cc(NC(=O)c2cnn(-c3ncc(C(F)(F)F)cc3F)c2C)cnc1C1=CCC(N2CCOCC2)CC1 (stereo not drawn) [Example D24, 1-[3-Fluoro-5-(trifluoromethyl)pyridin-2-yl]-5-methyl-N-{5-methyl-6-[4-(morpholin-4-yl)cyclohex-1-en-1-yl]pyridin-3-yl}-1H-pyrazole-4-carboxamide mesylate]	20.9	40.3
Cc1cc(NC(=O)c2cnn(-c3ncc(C(F)(F)F)cc3F)c2C)cnc1C1=CCC(O)CC1 (stereo not drawn) [Example D25, 1-[3-Fluoro-5-(trifluoromethyl)pyridin-2-yl]-5-methyl-N-[5-methyl-6-(4-hydroxycyclohex-1-en-1-yl)pyridin-3-yl]-1H-pyrazole-4-carboxamide]	4.2	148
Cc1c(C(=O)Nc2ccc([C@]3(C#N)CC[C@@H](N4CCOCC4)CC3)nc2)cnn1-c1ccc(C(C)C)cn1 [Example D26, N-{6-[r-1-Cyano-c-4-(morpholin-4-yl)cyclohexyl]pyridin-3-yl}-1-(5-isopropylpyridin-2-yl)-5-methyl-1H-pyrazole-4-carboxamide mesylate]	26.4	125
Cc1c(C(=O)Nc2ccc(C3(C#N)CCC4(CC3)OCCO4)nc2)cnn1-c1ccc(Br)cn1 [Example D29]	27.7	86.9
Cc1c(C(=O)Nc2ccc(C3(C#N)CCC4(CC3)OCCO4)nc2)cnn1-c1ccc(C(F)(F)F)cn1 [Example D41]	26.4	32.8
Cc1c(C(=O)Nc2ccc([C@]3(O)CC[C@@H](N4CCOCC4)CC3)nc2)cnn1-c1ccc(C(F)(F)F)cc1 [Example D53]	25.1	169
Cc1c(C(=O)Nc2ccc([C@H]3CC[C@H](N4CCOCC4)CC3)nc2)cnn1-c1ccc(C(F)F)cn1 [Example D63]	40.4	207
Cc1c(C(=O)Nc2ccc([C@H]3CC[C@H](N4CCOCC4)CC3)nc2)cnn1-c1ccc(C2CC2)cn1 [Example D64]	27.9	160
Cc1c(C(=O)Nc2ccc([C@H]3CC[C@H](N4CCOCC4)CC3)nc2)cnn1-c1ncc(C2CC2)cc1F [Example D65]	5.5	139
Cc1c(C(=O)Nc2ccc(C3=CCC(N4CCOCC4)CC3)nc2)cnn1-c1ccc(C(F)(F)F)cc1 (stereo not drawn) [Example D71]	16.5	62.5
Cc1c(C(=O)Nc2ccc([C@]3(C#N)CC[C@@H](N4CCOCC4)CC3)nc2)cnn1-c1ccc(C(C)(C)C)cc1 [Example D88]	43	52.6
Cc1c(C(=O)Nc2ccc([C@]3(C#N)CC[C@@H](N4CCOCC4)CC3)nc2)cnn1-c1ccc(F)cc1 [Example D89]	44.4	183
Cc1c(C(=O)Nc2ccc([C@]3(C#N)CC[C@@H](N4CCOCC4)CC3)nc2)cnn1-c1ccc(C(C)(C)C)cn1 [Example D104]	13.8	212
Cc1ccc(-n2ccc(C(=O)Nc3ccc(C4(C#N)CCC5(CC4)OCCO5)nc3)c2)cc1C [Example D153]	47.6	55.1
Cc1c(C(=O)Nc2ccc(C3CCC4(CC3)OCCO4)nc2)cnn1-c1ccc(C(C)(C)C)cc1 [Example D165]	8.9	44
Cc1cc(NC(=O)c2cnn(-c3ncc(C(F)(F)F)cc3Cl)c2C)cnc1C1=CCC(N2CCOCC2)CC1 (stereo not drawn) [Example D175]	31.7	49.8

SMILES	inhibition at 1 µM (hERG) [%]	IC50 [1] [nM]
Cc1cc(NC(=O)c2cnn(-c3ncc(C4CC4)cc3F)c2C)cnc1C1=CCC(N2CCOCC2)CC1 (stereo not drawn) [Example D177]	13	66
Cc1cc(NC(=O)c2cnn(-c3ncc(C(F)(F)F)cc3C)c2C)cnc1C1=CCC(N2CCOCC2)CC1 (stereo not drawn) [Example D188]	40	86.3
Cc1cc(NC(=O)c2cnn(-c3ccc(C4CC4)cn3)c2C)cnc1C1=CCN(C2CCOC2C)CC1 (stereo not drawn) [Example D191]	47.6	58.4
Cc1cc(NC(=O)c2cnn(-c3ncc(C(F)(F)F)cc3F)c2C)cnc1C1CCC2(CC1)OCCO2 [Example D196, N-[6-(1,4-Dioxaspiro[4.5]dec-8-yl)-5-methylpyridin-3-yl]-1-[3-fluoro-5-(trifluoromethyl)pyridin-2-yl]-5-methyl-1H-pyrazole-4-carboxamide]	13.6	54.6
COc1cc(C(F)(F)F)cnc1-n1ncc(C(=O)Nc2cnc(C3CCC4(CC3)OCCO4)c(C)c2)c1C [Example D197]	0.8	123
Cc1cc(NC(=O)c2cnn(-c3ccc(C(C)C)cn3)c2C)cnc1C1=CCC(N2CCOCC2)CC1 (stereo not drawn) [Example D200]	47.6	58.4
Cc1cc(NC(=O)c2cnn(-c3ccccc3)c2C)cnc1C1=CCC(N(C)C(=O)C(C)(C)C)CC1 (stereo not drawn) [Example D214]	10	18.7
Cc1cc(NC(=O)c2nn(C)c3ccccc23)cnc1C1=CCC(N(C)C(=O)C(C)(C)C)CC1 (stereo not drawn) [Example D217]	26.7	84.4
Cc1cc(NC(=O)c2cnn(-c3ccc(F)cc3)c2C)cnc1C1=CCC(N(C)C(=O)C(C)C)CC1 (stereo not drawn) [Example D219, 1-(4-Fluorophenyl)-N-{6-[4-(N-isobutyryl-N-methylamino)cyclohex-1-en-1-yl]-5-methylpyridin-3-yl}-5-methyl-1H-pyrazole-4-carboxamide]	11.4	59.5
Cc1cc(NC(=O)c2cnn(-c3ccc(C(F)(F)F)cn3)c2C)cnc1C1=CCC(C(=O)N(C)C)CC1 (stereo not drawn) [Example D221, N-[6-(4-N,N-Dimethylcarbamoylcyclohex-1-en-1-yl)-5-methylpyridin-3-yl]-5-methyl-1-[5-(trifluoromethyl)pyridin-2-yl]-1H-pyrazole-4-carboxamide]	20.1	31.4
Cc1cc(NC(=O)c2cnn(-c3ccc(C(F)(F)F)cn3)c2C)cnc1C1=CCC(NC(=O)C(C)(C)C)CC1 (stereo not drawn) [Example D224]	19.5	141
Cc1cc(NC(=O)c2cnn(-c3ccc(C(F)(F)F)cn3)c2C)cnc1C1=CCC2(CC1)OCCO2 [Example D234]	5.6	55.6
Cc1c(C(=O)Nc2ccc(C3CCC4(CC3)OCCO4)nc2)cnn1-c1ccc(C(F)(F)F)cn1 [Example D237]	3.6	50.3
Cc1cc(NC(=O)c2cnn(-c3ccc(C(F)(F)F)cn3)c2C)cnc1C1CCC2(CC1)OCCO2 [Example D238]	5	49.1
Cc1cc(NC(=O)c2cnn(-c3ccc(C(F)(F)F)cn3)c2C)cnc1C1=CCC(N(C)C(=O)OC(C)(C)C)CC1 (stereo not drawn) [Example D249, N-methyl-{4-[3-methyl-5-({5-methyl-1-[5-(trifluoromethyl)pyridin-2-yl]-1H-pyrazole-4-carbonyl}-amino)pyridin-2-yl]cyclohex-3-en-1-yl}carbamoic acid carbamic acid tert-butyl ester]	36.9	131
Cc1c(C(=O)Nc2ccc([C@]3(C#N)CC[C@@](C)(O)CC3)nc2)cnn1-c1ccc(C(F)(F)F)cn1 [Example D254]	6.6	146
Cc1cc(NC(=O)c2cnn(-c3ccc(F)cc3)c2C)cnc1C1=CCC(N(C)C(=O)C(C)(C)C)CC1 (stereo not drawn) [Example D260]	16.8	4.02
Cc1ccc(-n2ncc(C(=O)Nc3cnc(C4=CCC(N(C)C(=O)C(C)(C)C)CC4)c(C)c3)c2C)nc1 (stereo not drawn) [Example D264]	7.5	17.4
